Assay results published in patent publication EP1215212A2, “Dihydro derivatives of LL-E33288 antibiotics” (priority 1987, dated 1988).

Assays:
Assay type in all cases: cell-based
E. coli-lambda lysogen = experiment: Biochemical Induction Assay (BIA), modified; conditions: ability to directly or indirectly initiate DNA damage
From the text: The LL-E33288 antibiotics are active against gram-positive and gram-negative bacteria. Each of the components were also found to be active in a modification of the Biochemical Induction Assay [Elespuru, R. and Yarmolinsky, M., Environmental Mutagenesis, 1, 65-78 […]], a test which specifically measures the ability of an agent to directly or indirectly initiate DNA damage. In this assay, both LL-E33288γ1-I and LL-E33288δ1-I were active at concentrations lower than 1x10^-6 mcg/ml.
This pseudoaglycone is also active as an antitumor agent as determined in the Biochemical Induction Assay (BIA), a bacterial assay system which specifically measures the ability of an agent to directly or indirectly initiate DNA damage. The indicator organism for this test is an E. coli-lambda lysogen, genetically constructed such that a DNA damaging event results in the expression of the gene for the enzyme β-galactosidase. This enzyme can be determined qualitatively or quantitatively by biochemical assay as an indication that DNA damage has occurred.
A modified version of the quantitative liquid BIA disclosed by Elespuru, R. and Yarmolinsky, M., Environmental Mutagenesis, 1, 65 (1979) was used to evaluate these compounds.

Escherichia coli = experiment: Agar dilution MIC (Table II); conditions: inoculum 1 to 5 x 10^4 CFU, about 18 hours, 35°C
Procedure: (§1) The in vitro antibacterial activity of dihydro LL-E33288gamma l-I was determined against a spectrum of gram-positive and gram-negative bacteria by a standard agar dilution method. Mueller-Hinton agar containing two-fold decreasing concentrations of the antibiotics was poured into petri plates. The agar surfaces were inoculated with 1 to 5 x 10^4 colony forming units of bacteria by means of a Steers replicating device.

Serratia marcescens = experiment: Agar dilution MIC (Table II); conditions: inoculum 1 to 5 x 10^4 CFU, about 18 hours, 35°C
Procedure: as §1

Enterobacter aerogenes = experiment: Agar dilution MIC (Table II); conditions: Enterobacter aerogenes IO 83-44; inoculum 1 to 5 x 10^4 CFU; about 18 hours, 35°C
Procedure: as §1

Morganella morganii = experiment: Agar dilution MIC (Table II); conditions: Morganella morganii IO 83-18; inoculum 1 to 5 x 10^4 CFU; about 18 hours, 35°C
Procedure: as §1

Citrobacter diversus = experiment: Agar dilution MIC (Table II); conditions: Citrobacter diversus K-82-24; inoculum 1 to 5 x 10^4 CFU; about 18 hours, 35°C
Procedure: as §1

Citrobacter freundii = experiment: Agar dilution MIC (Table II); conditions: Citrobacter freundii IO 83-13; inoculum 1 to 5 x 10^4 CFU; about 18 hours, 35°C
Procedure: as §1

Klebsiella pneumoniae = experiment: Agar dilution MIC (Table II); conditions: inoculum 1 to 5 x 10^4 CFU, about 18 hours, 35°C
Procedure: as §1

Pseudomonas aeruginosa = experiment: Agar dilution MIC (Table II); conditions: inoculum 1 to 5 x 10^4 CFU, about 18 hours, 35°C
Procedure: as §1

Staphylococcus aureus = experiment: Agar dilution MIC (Table II); conditions: inoculum 1 to 5 x 10^4 CFU, about 18 hours, 35°C
Procedure: as §1

[1] = test system: Staphylococcus epidermidis; experiment: Agar dilution MIC (Table II); conditions: inoculum 1 to 5 x 10^4 CFU, about 18 hours, 35°C
Procedure: as §1

Acinetobacter sp = experiment: Agar dilution MIC (Table II); conditions: inoculum 1 to 5 x 10^4 CFU, about 18 hours, 35°C
Procedure: as §1

Enterobacter cloacae = experiment: Agar dilution MIC (Table II); conditions: Enterobacter cloacae CMC 84-4; inoculum 1 to 5 x 10^4 CFU; about 18 hours, 35°C
Procedure: as §1

Providencia stuartii = experiment: Agar dilution MIC (Table II); conditions: Providencia stuartii CMC 83-82; inoculum 1 to 5 x 10^4 CFU; about 18 hours, 35°C
Procedure: as §1

Streptococcus faecalis = experiment: Agar dilution MIC (Table II); conditions: inoculum 1 to 5 x 10^4 CFU, about 18 hours, 35°C
Procedure: as §1

CCN[C@H]1CO[C@@H](O[C@H]2[C@H](O[C@H]3C#CC=CC#C[C@@]4(O)CC(=O)C(NC(=O)OC)=C3/C4=C\CSSSC)O[C@H](C)[C@@H](NO[C@H]3C[C@H](O)[C@H](SC(=O)c4c(C)c(I)c(O[C@@H]5O[C@@H](C)[C@H](O)[C@@H](OC)[C@H]5O)c(OC)c4OC)[C@@H](C)O3)[C@@H]2O)C[C@@H]1OC (stereo in doubt) [LL-E33288γ1-I]
active at concentrations (E. coli-lambda lysogen): lower than 1x10^-6 mcg/ml

Dihydro-LL-E33288γ1-I [Dihydro-LL-E33288gamma1-I]
Minimal Inhibitory Concentration (Escherichia coli; Escherichia coli ATCC 25922): 1 µg/mL
Minimal Inhibitory Concentration (Escherichia coli; Escherichia coli CMC 84-11): 2 µg/mL
Minimal Inhibitory Concentration (Escherichia coli; Escherichia coli No. 311(MP)): 2 µg/mL
Minimal Inhibitory Concentration (Serratia marcescens; Serratia marcescens CMC 83-27): 2 µg/mL
Minimal Inhibitory Concentration (Serratia marcescens; Serratia marcescens F-35(MP)): 2 µg/mL
Minimal Inhibitory Concentration (Enterobacter aerogenes): 2 µg/mL
Minimal Inhibitory Concentration (Morganella morganii): 1 µg/mL
Minimal Inhibitory Concentration (Citrobacter diversus): 2 µg/mL
Minimal Inhibitory Concentration (Citrobacter freundii): 2 µg/mL
Minimal Inhibitory Concentration (Klebsiella pneumoniae; Klebsiella pneumoniae AD(MP)): 1 µg/mL
Minimal Inhibitory Concentration (Klebsiella pneumoniae; Klebsiella pneumoniae CMC 84-5): >2 µg/mL
Minimal Inhibitory Concentration (Pseudomonas aeruginosa; Pseudomonas aeruginosa 12-4-4(MP)): 2 µg/mL
Minimal Inhibitory Concentration (Pseudomonas aeruginosa; Pseudomonas aeruginosa ATCC 27853): 2 µg/mL
Minimal Inhibitory Concentration (Staphylococcus aureus; Staphylococcus aureus ATCC 25923): 0.06 µg/mL
Minimal Inhibitory Concentration (Staphylococcus aureus; Staphylococcus aureus SSC 82-20): 0.06 µg/mL
Minimal Inhibitory Concentration (Staphylococcus aureus; Staphylococcus aureus SSC 82-21): 0.004 µg/mL
Minimal Inhibitory Concentration (Staphylococcus aureus; Staphylococcus aureus SSC 82-23): 0.008 µg/mL
Minimal Inhibitory Concentration (Staphylococcus aureus; Staphylococcus aureus SSC 82-24): 0.002 µg/mL
Minimal Inhibitory Concentration (Staphylococcus aureus; Staphylococcus aureus SSC 82-54): 0.06 µg/mL
Minimal Inhibitory Concentration (Staphylococcus aureus; Staphylococcus aureus Smith(MP)): 0.004 µg/mL
Minimal Inhibitory Concentration ([1]; Staphylococcus epidermidis ATCC 12228): 0.015 µg/mL
Minimal Inhibitory Concentration ([1]; Staphylococcus epidermidis CMC 83-133): 0.015 µg/mL
Minimal Inhibitory Concentration (Acinetobacter sp; Acinetobacter sp CMC 83-89): 2 µg/mL
Minimal Inhibitory Concentration (Acinetobacter sp; Acinetobacter sp IO 83-49): >2 µg/mL
Minimal Inhibitory Concentration (Enterobacter cloacae): 2 µg/mL
Minimal Inhibitory Concentration (Providencia stuartii): 2 µg/mL
Minimal Inhibitory Concentration (Streptococcus faecalis; Streptococcus faecalis ATCC 29212): 0.001 µg/mL
Minimal Inhibitory Concentration (Streptococcus faecalis; Streptococcus faecalis CMC 83-53): 0.015 µg/mL
Minimal Inhibitory Concentration (Streptococcus faecalis; Streptococcus faecalis IO 83-28): 0.015 µg/mL
